Measurements reported in paper PMC8021898 (Frontiers in Pharmacology, 2021).
≈ marks a conversion by molar mass, not a printed value. Where “and” joins values, the source holds several entries; their conditions need not be identical. Equal values may be shown once. Read-outs that look alike come from different tables or passages of the source.

Assays:
[1] = for Css Free drug Concentration (mass/volume) / Css Free drug Concentration (molarity): approximately 20% protein bound
[2] = test system: H2 in primary human eosinophils; conditions: ref Reher et al., 2012, cited from earlier work
[3] = test system: hospitalized COVID-19 patients; conditions: ref Cheung et al., 2020, Shoaibi et al., Yeramaneni et al.; cited from earlier work
human sigma-1 receptor = human sigma-1 receptor (Homo sapiens, UniProt Q99720); conditions: concentrations up to 10 μM
human sigma-1 receptor, sequence (Q99720 whole entry): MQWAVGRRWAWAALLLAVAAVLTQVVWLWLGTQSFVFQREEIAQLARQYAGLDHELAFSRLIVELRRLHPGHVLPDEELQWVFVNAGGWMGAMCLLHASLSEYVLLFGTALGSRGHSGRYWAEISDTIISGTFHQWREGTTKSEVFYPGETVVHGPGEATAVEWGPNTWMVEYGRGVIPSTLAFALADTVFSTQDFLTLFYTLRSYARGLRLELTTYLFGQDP
Description: All reactions were performed in triplicate using a 96-well block. […] Data were analyzed using GraphPad Prism software.

[4] = test system: H2 in primary human neutrophils; conditions: ref Reher et al., 2012, cited from earlier work
[5] = test system: H2 in primary human neutrophils; conditions: ref Reher et al., 2012, cited from earlier work; remark: listed apart in the source
in vitro = conditions: African green monkey
H2 [6] = biological target: T1, H2 (Homo sapiens, UniProt P25021); experiment: cell-based
T1 sequence (P25021 whole entry): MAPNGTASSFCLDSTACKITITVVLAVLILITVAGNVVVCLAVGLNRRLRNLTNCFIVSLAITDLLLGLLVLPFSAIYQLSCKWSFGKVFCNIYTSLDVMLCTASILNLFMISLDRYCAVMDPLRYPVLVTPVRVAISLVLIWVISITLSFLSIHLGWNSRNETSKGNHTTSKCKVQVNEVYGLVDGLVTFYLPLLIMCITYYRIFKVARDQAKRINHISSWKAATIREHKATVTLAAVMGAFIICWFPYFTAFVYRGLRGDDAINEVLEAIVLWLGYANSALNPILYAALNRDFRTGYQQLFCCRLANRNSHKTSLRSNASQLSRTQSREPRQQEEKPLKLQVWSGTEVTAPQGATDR
Description: cAMP production was determined in transiently transfected HEK293T cells ([Stauch et al., 2019]) with minor modifications. In brief, HEK293 T cells were co-transfected with H2 and GloSensor cAMP reporter DNA (Promega) overnight and plated in poly-l-lysine coated clear bottom 384-well white plate at a density of 15,000 cells/well in 40 ul of DMEM supplemented with 1% dialyzed FBS for 6 h. Medium was removed and cells were loaded with 3 mM luciferin in drug buffer (20 ul/well, 1x HBSS, 20 mM HEPES, pH 7.40) for 30 min. Test compounds were prepared in the same drug buffer supplemented with 1 mg/ml BSA and added (20 ul/well at 2x) to cells. Luminescence was counted after 20 min and results were analyzed in Prism 8.4.

histamine H2 receptor [7] = conditions: cited from earlier work
COVID-19 patient = conditions: one patient, 60 mg p.o. t.i.d. for 30 days, started day 8 of symptoms; anecdotal
histamine H2 receptor [8] = biological target: T2, histamine H2 receptor (Homo sapiens, UniProt P25021); conditions: partial agonist
T2 sequence (P25021 whole entry): as above

human skin mast cells = conditions: 10 μM pre-incubation; ref Lippert et al., 2004; cited from earlier work
bradykinin receptor B2 = bradykinin receptor B2 (Homo sapiens, UniProt P30411); conditions: quadruplicate replicate
bradykinin receptor B2, sequence (P30411 whole entry): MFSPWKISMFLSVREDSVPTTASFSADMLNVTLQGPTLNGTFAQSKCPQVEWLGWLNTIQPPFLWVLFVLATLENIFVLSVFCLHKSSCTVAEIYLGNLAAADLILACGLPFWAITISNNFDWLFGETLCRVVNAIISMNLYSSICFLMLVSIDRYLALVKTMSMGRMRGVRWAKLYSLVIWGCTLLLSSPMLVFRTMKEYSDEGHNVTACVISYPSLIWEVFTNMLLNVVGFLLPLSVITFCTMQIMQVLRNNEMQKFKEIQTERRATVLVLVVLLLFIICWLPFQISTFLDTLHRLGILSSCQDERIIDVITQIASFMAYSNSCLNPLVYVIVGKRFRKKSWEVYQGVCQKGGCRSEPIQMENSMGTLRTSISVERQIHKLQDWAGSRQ
Description: (§1) Human G-coupled Protein Receptor genome (GPCRome) screening was carried out according to published procedure ([Kroeze et al., 2015]) with minor modifications. In brief, HTLA cells were subcultured into poly-L-lysine coated clear bottom 384-well white plates at a density of 6,000 cells/well in 40 ul of DMEM supplemented with 1% dialyzed FBS for overnight, transfected with 20 ng/well Tango constructs for 24 h, received drug stimulation (10 uM final) for another 24 h. Medium and drug solutions were removed and Bright-Glo Reagents (Promega) were added for luminescence counting. For concentration response assays, HTLA cells were transfected with Tango constructs for 24 h, plated in poly-L-Lysine coated clear bottom 384-well white plates at a density of 10,000 cells/well in 40 ul of DMEM supplemented with 1% dialyzed FBS for 6 h before receiving drugs for overnight stimulation. Plates were then counted as above.

318 known human GPCRs = conditions: 10 microM final; threshold >3x basal; follow up studies
Description: as §1

bradykinin receptor B1 = bradykinin receptor B1 (Homo sapiens, UniProt P46663); conditions: quadruplicate replicate
bradykinin receptor B1, sequence (P46663 whole entry): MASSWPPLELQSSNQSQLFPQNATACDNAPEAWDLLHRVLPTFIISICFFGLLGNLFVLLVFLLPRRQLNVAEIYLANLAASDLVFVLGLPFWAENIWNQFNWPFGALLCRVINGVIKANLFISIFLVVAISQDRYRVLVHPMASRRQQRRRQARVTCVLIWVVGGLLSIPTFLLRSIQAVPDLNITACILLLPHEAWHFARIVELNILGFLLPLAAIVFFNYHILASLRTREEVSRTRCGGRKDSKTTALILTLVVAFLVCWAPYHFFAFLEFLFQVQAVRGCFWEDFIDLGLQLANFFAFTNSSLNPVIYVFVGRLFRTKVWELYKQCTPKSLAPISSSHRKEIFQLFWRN
Description: as §1

histamine H2 receptor [9] = biological target: T2, histamine H2 receptor; experiment: cell-based
human sigma-2 (TMEM97) = human sigma-2 (TMEM97) (Homo sapiens, UniProt Q5BJF2); conditions: concentrations up to 10 μM
human sigma-2 (TMEM97), sequence (Q5BJF2 whole entry): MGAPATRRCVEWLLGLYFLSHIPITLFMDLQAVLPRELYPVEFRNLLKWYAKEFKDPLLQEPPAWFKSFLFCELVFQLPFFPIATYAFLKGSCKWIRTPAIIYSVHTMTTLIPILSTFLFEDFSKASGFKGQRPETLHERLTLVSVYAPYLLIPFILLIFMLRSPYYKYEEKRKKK
Description: Sigma-2 competition curves were performed in a similar manner, using Expi293 cells overexpressing the human sigma-2 (TMEM97) and using [^3H] DTG as the radioactive probe.

SARS-CoV-2 = experiment: microbe, parasite or virus in culture; assay type: cell-based; conditions: for IC50: read-out: Antiviral: IC50; for IC90: read-out: Antiviral: IC90; for inhibition of SARS-CoV-2 infection: Vero E6 cell-based assay
H2 [10] = biological target: T1, H2; experiment: biochemical; conditions: affinity (Ki) for histamine H2 receptor
Description: Radioligand binding assays with human histamine receptors. Radioligand binding assays with human H1, H2, H3, and H4 receptors were conducted according to the NIMH PDSP assay protocol (https://pdsp.unc.edu/pdspweb/?site=assays) and published procedures ([Besnard et al., 2012]).

[11] = MTT cytotoxicity assay in uninfected Vero E6 cells; conditions: African green monkey, uninfected Vero E6 cells
Vero E6 cells = experiment: MTT cytotoxicity assay in uninfected Vero E6 cells; conditions: uninfected Vero E6, MTT
[12] = 40 mg tablet p.o. t.i.d., pK data reported by Lin et al. (1987)
[13] = 40 mg tablet p.o. t.i.d., pK data reported by Yeh et al. (1987)
[14] = Severe acute respiratory syndrome coronavirus 2, Vero C1008, Vero E6, 48 h, MOI 0.025
[15] = Severe acute respiratory syndrome coronavirus 2, Vero C1008, 48 h

## CN/C(=N/CCSCc1nc[nH]c1C)NC#N [Cimetidine]
[1]; 200 mg tablet p.o. q.d.
  Css Free drug Concentration (mass/volume): 140 µg/L
[1]; 300 mg tablet p.o. q.d.
  Css Free drug Concentration (mass/volume): 180.1 µg/L
  Css Free drug Concentration (molarity): 720 nM

## NC(N)=Nc1nc(CSCCC(N)=NS(N)(=O)=O)cs1 [Famotidine]
[2]; read-out: IC50 Eosinophil H2 cAMP assay, Concentration (molarity)
  IC50: 158 nM
[2]
  IC50 Eosinophil H2 cAMP assay, Concentration (mass/volume): 0.0536 µg/mL (≈ 0.159 µM)
[3]
  effect in more recent retrospective studies: no effect
Human sigma-1 receptor
  displacement of radioligand probe, sigma-1: no detectable displacement
[4]; read-out: IC50 Neutrophil H2 cAMP assay, Concentration (molarity)
  IC50: 24 nM
[4]
  IC50 Neutrophil H2 cAMP assay, Concentration (mass/volume): 0.008 µg/mL (≈ 0.0237 µM)
[5]; read-out: IC50 Neutrophil H2 O2- assay, Concentration (molarity)
  IC50: 201 nM
[5]
  IC50 Neutrophil H2 O2- assay, Concentration (mass/volume): 0.067 µg/mL (≈ 0.199 µM)
[1]; 20 mg capsule p.o. b.i.d.
  Css Free drug Concentration (mass/volume): 29.4 µg/L
  Css Free drug Concentration (molarity): 87 nM
[1]; 20 mg capsule p.o. q.d.
  Css Free drug Concentration (mass/volume): 14.7 µg/L
  Css Free drug Concentration (molarity): 44 nM
[1]; 20 mg capsule p.o. t.i.d.
  Css Free drug Concentration (mass/volume): 44.2 µg/L
  Css Free drug Concentration (molarity): 131 nM
[1]; 20 mg tablet p.o. b.i.d.
  Css Free drug Concentration (mass/volume): 28.3 µg/L
  Css Free drug Concentration (molarity): 84 nM
[1]; 20 mg tablet p.o. q.d.
  Css Total Concentration (mass/volume): 53 nM
  Css Free drug Concentration (mass/volume): 14.2 µg/L
  Css Free drug Concentration (molarity): 42 nM
[1]; 20 mg tablet p.o. t.i.d.
  Css Free drug Concentration (mass/volume): 42.5 µg/L
  Css Free drug Concentration (molarity): 126 nM
[1]; [12]
  Css Free drug Concentration (mass/volume): 44.3 µg/L
  Css Free drug Concentration (molarity): 131 nM
[1]; [13]
  Css Free drug Concentration (mass/volume): 64.6 µg/L
  Css Free drug Concentration (molarity): 192 nM
[1]; 60 mg tablet p.o. t.i.d.
  Css Free drug Concentration (mass/volume): 115.4 µg/L
  Css Free drug Concentration (molarity): 340 nM
[1]; 120 mg IV every 8 h
  Css Free drug Concentration (mass/volume): 1,032 μg/l
  Css Free drug Concentration (molarity): 874 nM
In vitro
  CC50: > 100000 nM
H2 [6]
  EC50: 33 nM
H2 [6]; Figure 4B
  activity on H2 in the presence of histamine: antagonist activity
H2 [6]; cAMP, H2
  inverse agonist activity, reduction of basal activity: 75%
Histamine H2 receptor [7]; read-out: IC50 Histamine H2, Concentration (molarity), ref Lin et al., 1987, 1991
  IC50: 39 nM
Histamine H2 receptor [7]; ref Lin et al., 1987, 1991
  IC50 Histamine H2, Concentration (mass/volume): 0.013 µg/mL (≈ 0.0385 µM)
COVID-19 patient
  clinical symptoms after initiating treatment: relief of symptoms overnight
Histamine H2 receptor [8]
  arrestin recruitment efficacy: about 15 % that of histamine
Human skin mast cells
  effect on histamine-induced cAMP increase: blocks histamine-induced cAMP increase
Bradykinin receptor B2
  activation of bradykinin receptor B2: no activation
318 known human GPCRs
  agonist activity at GPCRs other than H2: no agonist activity
Bradykinin receptor B1
  activation of bradykinin receptor B1: no activation
Histamine H2 receptor [9]
  EC50: 105 nM
Human sigma-2 (TMEM97)
  displacement of radioligand probe, sigma-2: no detectable displacement
SARS-CoV-2; [14]
  IC50: > 100000 nM
  IC90: > 100000 nM
SARS-CoV-2
  inhibition of SARS-CoV-2 infection: no inhibition
H2 [10]
  Ki: ~14 nM and 14 nM

## CCN(CCO)CCCC(C)Nc1ccnc2cc(Cl)ccc12 (stereo not shown) [Hydroxychloroquine]
[11]
  CC50 at 48 h: > 20000 nM
Vero E6 cells
  Cytotoxicity: CC10: 216 nM
SARS-CoV-2; [15]
  IC50: 1440 nM
  IC90: 3470 nM
SARS-CoV-2
  inhibition of SARS-CoV-2 infection: demonstrated antiviral activity

## CCC(CC)COC(=O)[C@H](C)N[P@](=O)(OC[C@H]1O[C@@](C#N)(c2ccc3c(N)ncnn23)[C@H](O)[C@@H]1O)Oc1ccccc1 [Remdesivir]
Vero E6 cells
  Cytotoxicity: CC10: > 20000 nM
In vitro
  CC50: > 20000 nM
SARS-CoV-2; [15]
  IC50: 966 nM
  IC90: 1770 nM
SARS-CoV-2
  inhibition of SARS-CoV-2 infection: demonstrated antiviral activity

## NCCc1c[nH]cn1 [histamine]
H2 [6]; N = 2
  stimulation of cAMP production: 20 fold of basal
